From patent publication US20260240847A1, “COMPOUNDS WITH ANTI-TUMOR ACTIVITY AGAINST CANCER CELLS BEARING TYROSINE KINASE INHIBITOR RESISTANT EGFR MUTATIONS” (BOARD OF REGENTS, THE UNIVERSITY OF TEXAS SYSTEM, priority 2019, published 2026)

Columns and labels:
Assay in all cases: Ba/F3 cell viability, Cell Titer Glo
EGFR S768I/T790M = EGFR S768I/T790M (Homo sapiens, UniProt P00533, S768I/T790M); conditions: read-out: IC50 Values; Ba/F3 cells expressing EGFR S768I/T790M, 72 hours
Experimental: (§1) Cell viability was determined by the Cell Titer Glo assay.
(§2) Briefly, 2000-3000 cells per well were plated in 384-well plates (Greiner Bio-One) in technical triplicate. Cells were treated with seven different concentrations of tyrosine kinase inhibitors or vehicle alone at a final volume of 40 μL per well. After 3 days, 11 μL of Cell Titer Glo was added to each well. Plates were shaken for 15 minutes, and bioluminescence was determined using a FLUOstar OPTIMA multi-mode micro-plate reader (BMG LABTECH). Bioluminescence values were normalized to DMSO treated cells, and normalized values were plotted in GraphPad Prism using non-linear regression fit to normalized data with a variable slope.

EGFR L858R/V834L = EGFR L858R/V834L (Homo sapiens, UniProt P00533, L858R/V834L); conditions: read-out: IC50 Values; Ba/F3 cells expressing EGFR L858R/V834L, 72 hours
Experimental: (§3) The transforming capability of the mutations was then evaluated by sustained cell viability following IL-3 deprivation. Activating EGFR mutant Ba/F3 cells were then screened against EGFR TKIs. Cell viability was determined by the Cell Titer Glo assay.
(§4) Ba/F3 cells expressing acquired atypical mutations spanning exons 18-21 were treated with inhibitors for 72 hours. […] Briefly, stable Ba/F3 cell lines were generated by retroviral transduction of Ba/F3 cell line for 12 hours. […] Three days after transduction, 2 μg/ml puromycin (Invitrogen) was added to the RPMI media. Cell lines were then grown in the absence of IL-3 for two weeks and cell viability was assessed every three days using the Cell Titer Glo assay (Progema).
as §2

EGFR G724S T790M = EGFR G724S T790M (Homo sapiens, UniProt P00533, G724S/T790M); conditions: read-out: IC50 Values; Ba/F3 cells expressing EGFR G724S T790M, 72 hours
Experimental: as §1
(§5) Briefly, stable Ba/F3 cell lines were generated by retroviral transduction of Ba/F3 cell line for 12 hours. […] Three days after transduction, 2 μg/ml puromycin (Invitrogen) was added to the RPMI media. Cell lines were then grown in the absence of IL-3 for two weeks and cell viability was assessed every three days using the Cell Titer Glo assay (Progema).
as §2

EGFR Ex19delT790M = EGFR Ex19delT790M (Homo sapiens, UniProt P00533, DEL746-750/T790M); conditions: read-out: IC50 Values; Ba/F3 cells expressing EGFR Ex19delT790M, 72 hours
Experimental: as §1, §5, §2

EGFR E709A = EGFR E709A (Homo sapiens, UniProt P00533, E709A); conditions: read-out: IC50 Values; Ba/F3 cells expressing EGFR E709A, 72 hours
Experimental: as §1, §5, §2

EGFR E709K G719S = EGFR E709K G719S (Homo sapiens, UniProt P00533, E709K/G719S); conditions: read-out: IC50 Values; Ba/F3 cells expressing EGFR E709K G719S, 72 hours
Experimental: as §1, §5, §2

EGFR V769L = EGFR V769L (Homo sapiens, UniProt P00533, V769L); conditions: read-out: IC50 Values; Ba/F3 cells expressing EGFR V769L, 72 hours
Experimental: as §1, §5, §2

EGFR S811F = EGFR S811F (Homo sapiens, UniProt P00533, S811F); conditions: read-out: IC50 Values; Ba/F3 cells expressing EGFR S811F, 72 hours
Experimental: as §1, §5, §2

EGFR T790M = EGFR T790M (Homo sapiens, UniProt P00533, T790M); conditions: read-out: IC50 Values; Ba/F3 cells expressing EGFR T790M, 72 hours
EGFR T790M, sequence (P00533 25-1210 T790M): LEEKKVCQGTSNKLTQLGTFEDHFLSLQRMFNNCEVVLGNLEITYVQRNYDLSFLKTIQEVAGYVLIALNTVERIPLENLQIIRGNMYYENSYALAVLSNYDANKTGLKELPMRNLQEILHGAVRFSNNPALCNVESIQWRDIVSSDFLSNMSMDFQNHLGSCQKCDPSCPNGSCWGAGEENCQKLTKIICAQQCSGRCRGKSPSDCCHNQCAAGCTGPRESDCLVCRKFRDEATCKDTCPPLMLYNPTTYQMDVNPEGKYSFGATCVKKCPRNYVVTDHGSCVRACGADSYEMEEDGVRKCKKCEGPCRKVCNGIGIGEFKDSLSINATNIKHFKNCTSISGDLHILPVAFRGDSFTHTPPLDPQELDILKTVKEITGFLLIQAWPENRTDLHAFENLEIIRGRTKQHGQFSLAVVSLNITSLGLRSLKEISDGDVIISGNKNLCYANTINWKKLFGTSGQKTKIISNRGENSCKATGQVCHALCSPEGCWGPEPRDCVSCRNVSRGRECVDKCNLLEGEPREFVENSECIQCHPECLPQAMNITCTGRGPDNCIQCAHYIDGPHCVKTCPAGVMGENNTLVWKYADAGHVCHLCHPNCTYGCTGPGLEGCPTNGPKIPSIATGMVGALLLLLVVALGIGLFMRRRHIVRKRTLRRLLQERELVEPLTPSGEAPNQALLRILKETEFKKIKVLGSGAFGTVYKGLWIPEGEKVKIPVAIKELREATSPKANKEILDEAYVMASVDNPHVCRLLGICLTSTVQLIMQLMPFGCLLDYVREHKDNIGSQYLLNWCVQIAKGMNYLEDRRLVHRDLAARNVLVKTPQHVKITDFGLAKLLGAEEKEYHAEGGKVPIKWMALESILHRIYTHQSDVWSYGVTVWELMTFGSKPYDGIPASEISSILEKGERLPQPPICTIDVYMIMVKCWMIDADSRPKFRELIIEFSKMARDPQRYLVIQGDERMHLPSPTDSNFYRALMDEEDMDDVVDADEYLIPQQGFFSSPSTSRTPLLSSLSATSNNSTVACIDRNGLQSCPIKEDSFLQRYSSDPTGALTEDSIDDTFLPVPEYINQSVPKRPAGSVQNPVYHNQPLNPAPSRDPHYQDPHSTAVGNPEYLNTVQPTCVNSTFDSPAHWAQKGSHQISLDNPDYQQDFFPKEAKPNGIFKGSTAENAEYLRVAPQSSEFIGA
Experimental: as §1, §5, §2

[1] = biological target: EGFR L747 K754del insATSPE (Homo sapiens, UniProt P00533, DEL747-749/K754E); conditions: read-out: IC50 Values; Ba/F3 cells expressing EGFR L747 K754del insATSPE, 72 hours
EGFR L747 K754del insATSPE, sequence (P00533 with tags, fused parts or gaps DEL747-749/K754E): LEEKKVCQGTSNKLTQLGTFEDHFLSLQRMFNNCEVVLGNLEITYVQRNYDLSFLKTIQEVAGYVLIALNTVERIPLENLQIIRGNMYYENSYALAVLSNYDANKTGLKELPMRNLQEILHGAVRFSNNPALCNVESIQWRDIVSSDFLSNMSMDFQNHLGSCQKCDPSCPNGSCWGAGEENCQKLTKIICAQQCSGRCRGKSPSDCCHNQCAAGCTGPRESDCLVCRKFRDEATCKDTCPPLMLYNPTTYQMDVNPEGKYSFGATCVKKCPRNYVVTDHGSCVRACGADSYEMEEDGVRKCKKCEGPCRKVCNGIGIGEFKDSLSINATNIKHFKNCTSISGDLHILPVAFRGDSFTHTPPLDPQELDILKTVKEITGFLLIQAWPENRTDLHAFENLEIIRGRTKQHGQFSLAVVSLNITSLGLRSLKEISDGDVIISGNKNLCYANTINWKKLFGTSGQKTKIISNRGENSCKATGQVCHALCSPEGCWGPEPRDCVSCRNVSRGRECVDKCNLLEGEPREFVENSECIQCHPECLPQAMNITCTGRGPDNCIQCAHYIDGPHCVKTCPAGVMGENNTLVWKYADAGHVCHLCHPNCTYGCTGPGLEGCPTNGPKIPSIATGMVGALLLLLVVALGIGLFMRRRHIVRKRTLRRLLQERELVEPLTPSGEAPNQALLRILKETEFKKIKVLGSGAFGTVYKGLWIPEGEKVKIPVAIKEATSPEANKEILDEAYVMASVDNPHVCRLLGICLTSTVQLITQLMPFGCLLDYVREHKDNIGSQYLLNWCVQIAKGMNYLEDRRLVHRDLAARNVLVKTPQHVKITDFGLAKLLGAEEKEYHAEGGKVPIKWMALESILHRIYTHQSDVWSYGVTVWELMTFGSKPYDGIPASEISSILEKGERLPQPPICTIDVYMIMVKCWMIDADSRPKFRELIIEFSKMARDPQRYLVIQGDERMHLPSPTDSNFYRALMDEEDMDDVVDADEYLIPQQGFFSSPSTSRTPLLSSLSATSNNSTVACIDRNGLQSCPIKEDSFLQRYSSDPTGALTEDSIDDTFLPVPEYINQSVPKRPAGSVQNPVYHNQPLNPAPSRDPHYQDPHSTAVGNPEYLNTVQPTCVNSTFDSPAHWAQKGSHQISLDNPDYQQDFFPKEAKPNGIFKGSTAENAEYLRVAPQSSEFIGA
Experimental: as §1, §5, §2

EGFR V774M = EGFR V774M (Homo sapiens, UniProt P00533, V774M); conditions: read-out: IC50 Values; Ba/F3 cells expressing EGFR V774M, 72 hours
Experimental: as §1, §5, §2

EGFR L861R = EGFR L861R (Homo sapiens, UniProt P00533, L861R); conditions: read-out: IC50 Values; Ba/F3 cells expressing EGFR L861R, 72 hours
Experimental: as §1, §5, §2

EGFR L858R T790M L792H = EGFR L858R T790M L792H (Homo sapiens, UniProt P00533, L792H/L858R/T790M); conditions: read-out: IC50 Values; Ba/F3 cells expressing EGFR L858R T790M L792H, 72 hours
EGFR L858R T790M L792H, sequence (P00533 25-1210 T790M/L792H/L858R): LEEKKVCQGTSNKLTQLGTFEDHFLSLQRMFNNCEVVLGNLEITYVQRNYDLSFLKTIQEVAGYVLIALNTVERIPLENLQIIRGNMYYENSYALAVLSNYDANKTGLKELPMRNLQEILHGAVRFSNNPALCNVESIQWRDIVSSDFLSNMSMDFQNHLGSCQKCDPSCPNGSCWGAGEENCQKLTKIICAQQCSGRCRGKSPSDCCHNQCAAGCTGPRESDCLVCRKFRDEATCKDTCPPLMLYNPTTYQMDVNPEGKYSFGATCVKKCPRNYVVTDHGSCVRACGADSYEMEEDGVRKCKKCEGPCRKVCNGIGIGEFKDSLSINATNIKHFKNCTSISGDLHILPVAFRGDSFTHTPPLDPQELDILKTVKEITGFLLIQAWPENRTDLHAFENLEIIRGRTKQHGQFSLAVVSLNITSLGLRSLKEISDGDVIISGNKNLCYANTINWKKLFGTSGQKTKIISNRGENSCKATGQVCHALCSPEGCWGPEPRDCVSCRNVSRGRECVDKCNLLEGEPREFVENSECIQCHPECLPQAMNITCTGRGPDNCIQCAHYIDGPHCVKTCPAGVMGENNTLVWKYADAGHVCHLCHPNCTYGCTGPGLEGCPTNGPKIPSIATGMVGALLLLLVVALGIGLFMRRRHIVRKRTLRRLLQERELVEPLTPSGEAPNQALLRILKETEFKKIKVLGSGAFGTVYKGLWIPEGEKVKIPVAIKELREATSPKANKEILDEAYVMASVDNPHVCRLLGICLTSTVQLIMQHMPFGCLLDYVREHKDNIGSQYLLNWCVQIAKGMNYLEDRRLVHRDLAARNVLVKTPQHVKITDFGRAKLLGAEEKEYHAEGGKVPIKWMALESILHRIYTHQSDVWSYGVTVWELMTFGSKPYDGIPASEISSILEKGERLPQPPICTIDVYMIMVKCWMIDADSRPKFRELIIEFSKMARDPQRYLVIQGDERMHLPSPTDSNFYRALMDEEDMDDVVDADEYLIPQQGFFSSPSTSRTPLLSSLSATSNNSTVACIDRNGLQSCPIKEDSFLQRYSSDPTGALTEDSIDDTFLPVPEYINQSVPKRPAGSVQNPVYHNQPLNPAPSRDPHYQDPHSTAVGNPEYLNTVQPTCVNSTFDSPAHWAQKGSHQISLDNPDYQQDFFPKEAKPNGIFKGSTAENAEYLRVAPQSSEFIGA
Experimental: as §1, §5, §2

EGFR Ex19del/L792H = EGFR Ex19del/L792H (Homo sapiens, UniProt P00533, DEL746-750/L792H); conditions: read-out: IC50 Values; Ba/F3 cells expressing EGFR Ex19del/L792H, 72 hours
EGFR Ex19del/L792H, sequence (P00533 with tags, fused parts or gaps DEL746-750/L792H): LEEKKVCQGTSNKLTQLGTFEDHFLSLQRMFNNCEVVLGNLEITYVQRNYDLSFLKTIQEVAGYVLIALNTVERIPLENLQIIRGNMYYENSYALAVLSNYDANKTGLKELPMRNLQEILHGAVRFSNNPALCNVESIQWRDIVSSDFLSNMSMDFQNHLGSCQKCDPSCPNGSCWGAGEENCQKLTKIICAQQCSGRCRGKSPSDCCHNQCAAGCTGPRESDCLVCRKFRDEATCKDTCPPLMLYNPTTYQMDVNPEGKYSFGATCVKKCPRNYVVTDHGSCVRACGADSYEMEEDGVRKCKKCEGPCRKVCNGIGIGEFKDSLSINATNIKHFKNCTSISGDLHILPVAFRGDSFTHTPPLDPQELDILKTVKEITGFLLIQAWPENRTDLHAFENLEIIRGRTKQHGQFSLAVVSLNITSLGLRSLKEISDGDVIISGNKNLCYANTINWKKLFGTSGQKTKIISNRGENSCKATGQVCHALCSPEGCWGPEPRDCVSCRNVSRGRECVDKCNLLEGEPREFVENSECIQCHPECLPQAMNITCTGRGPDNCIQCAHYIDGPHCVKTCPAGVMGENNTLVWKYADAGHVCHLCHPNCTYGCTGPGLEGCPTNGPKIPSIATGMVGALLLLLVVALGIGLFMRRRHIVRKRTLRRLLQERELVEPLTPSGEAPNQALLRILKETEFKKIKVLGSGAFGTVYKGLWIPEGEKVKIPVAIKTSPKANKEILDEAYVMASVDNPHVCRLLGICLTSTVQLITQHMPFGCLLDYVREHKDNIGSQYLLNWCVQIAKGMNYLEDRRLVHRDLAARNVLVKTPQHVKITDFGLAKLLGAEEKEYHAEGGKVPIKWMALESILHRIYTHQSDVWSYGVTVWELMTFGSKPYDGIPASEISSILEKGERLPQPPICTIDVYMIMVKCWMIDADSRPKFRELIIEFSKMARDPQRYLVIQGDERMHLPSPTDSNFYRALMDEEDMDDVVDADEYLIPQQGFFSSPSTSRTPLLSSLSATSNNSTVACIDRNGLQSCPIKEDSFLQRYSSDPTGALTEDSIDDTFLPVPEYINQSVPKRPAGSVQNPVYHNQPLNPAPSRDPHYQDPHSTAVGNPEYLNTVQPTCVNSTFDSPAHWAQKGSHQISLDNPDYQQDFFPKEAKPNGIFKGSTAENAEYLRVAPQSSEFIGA
Experimental: as §3, §4, §2

EGFR Ex19del/C797S = EGFR Ex19del/C797S (Homo sapiens, UniProt P00533, C797S/DEL746-750); conditions: read-out: IC50 Values; Ba/F3 cells expressing EGFR Ex19del/C797S, 72 hours
Experimental: as §3, §4, §2

EGFR L858R/T790M/L718Q = EGFR L858R/T790M/L718Q (Homo sapiens, UniProt P00533, L718Q/L858R/T790M); conditions: read-out: IC50 Values; Ba/F3 cells expressing EGFR L858R/T790M/L718Q, 72 hours
Experimental: as §1, §5, §2

EGFR L833F = EGFR L833F (Homo sapiens, UniProt P00533, L833F); conditions: read-out: IC50 Values; Ba/F3 cells expressing EGFR L833F, 72 hours
Experimental: as §1, §5, §2

EGFR Ex19delT790M L718V = EGFR Ex19delT790M L718V (Homo sapiens, UniProt P00533, DEL746-750/L718V/T790M); conditions: read-out: IC50 Values; Ba/F3 cells expressing EGFR Ex19delT790M L718V, 72 hours
Experimental: as §1, §5, §2

EGFR S768I = EGFR S768I (Homo sapiens, UniProt P00533, S768I); conditions: read-out: IC50 Values; Ba/F3 cells expressing EGFR S768I, 72 hours
Experimental: as §1, §5, §2

EGFR H773insNPH = EGFR H773insNPH (Homo sapiens, UniProt P00533, INS773NPH); conditions: read-out: IC50 Values; Ba/F3 cells expressing EGFR H773insNPH, 72 hours
Experimental: as §1, §5, §2

## C=CC(=O)N1CC[C@@H](Oc2nc(Nc3ccc(N4CCC(N5CCN(C)CC5)CC4)cc3)c(C(N)=O)nc2CC)C1 [Naquotinib]
EGFR S768I/T790M
  IC50: 19.2 nM
EGFR L858R/V834L
  IC50: 7.19 nM
EGFR G724S T790M
  IC50: 18.8 nM
EGFR Ex19delT790M
  IC50: 1.41 nM
EGFR E709A
  IC50: 255 nM
EGFR E709K G719S
  IC50: 15.2 nM
EGFR V769L
  IC50: 219 nM
EGFR S811F
  IC50: 173 nM
EGFR T790M
  IC50: 54.4 nM
[1]
  IC50: 0.58 nM
EGFR V774M
  IC50: 38.5 nM
EGFR L861R
  IC50: 12.2 nM
EGFR L858R T790M L792H
  IC50: 624 nM
EGFR Ex19del/L792H
  IC50: 3.94 nM
EGFR Ex19del/C797S
  IC50: 1540 nM
EGFR L858R/T790M/L718Q
  IC50: 91.8 nM
EGFR L833F
  IC50: 411 nM
EGFR Ex19delT790M L718V
  IC50: 7.72 nM
EGFR S768I
  IC50: 503 nM
EGFR H773insNPH
  IC50: 145 nM
